Measurements taken from US20090130707A1, “Methods of reducing the inhibitory effect of a redox active metal ion on the enzymatic hydrolysis of cellulosic material” (priority 2007, published 2009).
Like-named read-outs stand apart in the source and are kept apart here.

Experiments:
[1] = test system: Cellulolytic Enzyme Composition #2; assay: mini-plate-scale PCS hydrolysis by Cellulolytic Enzyme Composition #2 with H2O2 and ferric ion chelator; assay type: biochemical, Trichoderma reesei; settings: for Effect on the inhibition by ferrous ion: 2.5 mM FeSO4, 10 mM H2O2 for 30 minutes, 10 mM desferrioxamine
Method: However, prior to the addition of Cellulolytic Enzyme Composition #2, the mixture of PCS and FeSO4 was treated with 10 mM H2O2 for 30 minutes. In some cases, 10 mM desferrioxamine was also added. Reactions without the addition of FeSO4 or H2O2 served as controls.

[2] = test system: Cellulolytic Enzyme Composition #1; assay: mini-scale PCS hydrolysis by Cellulolytic Enzyme Composition #1; assay type: biochemical, Trichoderma reesei; settings: for cellobiose level in the hydrolysis products versus absence of the compounds: PCS hydrolysis; for Effect of chelator on enzyme in the absence of FeSO4: PCS hydrolysis (FIGS. 23A-23D)
Method: The effect of various salts (FeSO4, FeCl2, NaCl, Na2SO4, MnSO4, MnCl2) was determined in the hydrolysis of PCS by Cellulolytic Enzyme Composition #2. The PCS hydrolysis was performed in duplicate in capped 1.7 ml EPPENDORF® tubes (“mini-scale”) containing 1 ml suspensions of 43.4 g of PCS (dry weight) per liter, 10 mM salts in 50 mM sodium acetate pH 5. Cellulolytic Enzyme Composition #2 was added at 0.25 g per liter. Reactions without the addition of the salt served as controls. The capped tubes were incubated at 50° C. in an INNOVA® 4080 incubator shaker (New Brunswick Scientific Co., Inc., Edison, N.J., USA) at 150 rpm.
(§1) Aliquots of the suspensions, sampled over time, were filtered by centrifugation using a 0.45 μm MULTISCREEN® HV membrane (Millipore, Billerica, Mass., USA) at 2000 rpm for 15 minutes using a SORVALL® RT7 centrifuge (Thermo Fisher Scientific, Waltham, Mass., USA). When not used immediately, the filtered sugary aliquots were frozen at −20° C. Sugar concentrations of the samples diluted in 0.005 M H2SO4 were measured after elution from a 4.6×250 mm AMINEX® HPX-87H column (Bio-Rad, Hercules, Calif., USA) by 0.005 M H2SO4 at a flow rate of 0.4 ml/minute at 65° C. with quantitation by integration of glucose and cellobiose using refractive index detection (CHEMSTATION®, AGILENT® 1100 HPLC, Agilent Technologies, Santa Clara, Calif., USA) calibrated with standards of glucose and cellobiose. The resultant equivalents were used to calculate the percentage of cellulose conversion for each reaction.
Example 30 was repeated with both Cellulolytic Enzyme Composition #1 and Cellulolytic Enzyme Composition #2. Soluble reducing sugars were measured by HPLC as described in Example 30. Reactions without the addition of FeSO4 served as controls.
The hydrolysis was performed in a series of duplicate “mini-scale” hydrolysis reactions according to the procedure described in Example 30.

[3] = cited from earlier work
[4] = test system: Cellulolytic Enzyme Composition #1; assay: mini-plate-scale AVICEL hydrolysis by Cellulolytic Enzyme Composition #1; assay type: biochemical, Trichoderma reesei; settings: for Effect on enzymatic cellulolysis: loss in initial rate / Effect on enzymatic cellulolysis: loss in extended hydrolysis extent: 10 mM, 25 g AVICEL and 0.25 g enzyme per liter, pH 5, 50° C.; for Effect on enzymatic cellulolysis: loss in extended hydrolysis extent: after 4 days
Method: (§2) Various (biologically common) divalent metal cations with variable ionic radii were tested in 2.8 ml Deep Well Microplates (VWR International, West Chester, Pa., USA) (“mini-plate-scale”) containing 1 ml suspensions of 25 g of AVICEL® per liter in 50 mM sodium acetate pH 5 at 50° C. Cellulolytic Enzyme Composition #1 was added at 0.25 g per liter for each hydrolysis. The mini-plates were sealed at 160° C. for 2 seconds using an ABGENE® ALPS 300™ sealer (ABgene, Rochester, N.Y., USA). The sealed mini-plates were incubated at 50° C. in an INNOVA® 4080 incubator shaker at 150 rpm. Soluble reducing sugars were measured by HPLC as described in Example 30.
Iron-chelator complexes of variable size or redox property were tested for their ability to inhibit enzymatic hydrolysis of cellulose. […]

[5] = test system: Cellulolytic Enzyme Composition #1; assay: Pre-incubation of iron ion with PASC or enzyme, then PASC hydrolysis; assay type: biochemical, Trichoderma reesei
Method: The “pre-incubation” study was also performed for the hydrolysis of PASC. The experiments were similar to those described above, except 2 g of PASC, replacing AVICEL®, and 0.01 g of Cellulolytic Enzyme Composition #1 per liter of 50 mM sodium acetate pH 5, and 3 days pre-incubation were used. All hydrolyses were performed using the “mini-plate-scale” hydrolysis reaction according to the procedure described in Example 32, except for the change in cellulose or cellulase described above.

[6] = test system: Cellulolytic Enzyme Composition #1; assay: Pre-incubation of iron ion with AVICEL or enzyme, then AVICEL hydrolysis; assay type: biochemical, Trichoderma reesei
Method: To test whether Fe(II) affects cellulose or cellulase, 10 mM FeCl2 was pre-incubated with either 25 g of AVICEL® or 0.25 g of Cellulolytic Enzyme Composition #1 per liter of 50 mM sodium acetate pH 5 for three days. “Fe-pretreated” AVICEL® was washed and Cellulolytic Enzyme Composition #1 was gel-filtered using BioSpin 6 desalting columns (Bio-Rad, Hercules, Calif., USA) to remove residual Fe ion. Fe-pretreated AVICEL® was hydrolyzed with fresh Cellulolytic Enzyme Composition #1 or Cellulolytic Enzyme Composition #1 subjected to “FeCl2-less” pre-incubation and gel filtration. Fe-pretreated Cellulolytic Enzyme Composition #1 was applied to hydrolyze fresh AVICEL® or AVICEL® subjected to “FeCl2-less” pre-incubation and washing, in comparison with the hydrolysis of fresh AVICEL® ([…]) by fresh Cellulolytic Enzyme Composition #1 ([…]), with or without 10 mM FeCl2. All hydrolyses were performed using the “mini-plate-scale” hydrolysis reaction procedure described in Example 32, except for the change in cellulose or cellulase described above.
To test whether Fe(III) affected cellulose or cellulase, 10 mM FeCl3 was pre-incubated with either 25 g of AVICEL® or 0.25 g of Cellulolytic Enzyme Composition #1 per liter of 50 mM sodium acetate pH 5 for three days. All hydrolyses were performed using the “mini-plate-scale” hydrolysis reactions according to the procedure described in Example 32, except for the change in cellulose or cellulase described above.

[7] = test system: Cellulolytic Enzyme Composition #2; assay: mini-scale PCS hydrolysis by Cellulolytic Enzyme Composition #2; assay type: biochemical, Trichoderma reesei; settings: 10 mM salt; 43.4 g PCS and 0.25 g enzyme per liter, 50 mM sodium acetate pH 5, 50° C.
Method: Corn stover was pretreated at the U.S. Department of Energy National Renewable Energy Laboratory (NREL), […], Colo., USA, using dilute sulfuric acid. The following conditions were used for the pretreatment: 1.4 wt % sulfuric acid at 195° C. for 4.5 minutes. According to limit digestion with excess cellulase enzymes, the water-insoluble solids in the pretreated corn stover (PCS) contained 59.5% cellulose. Prior to use, the PCS was washed with a large volume of deionized water until soluble acid and sugars were removed. The dry weight of the water-washed PCS was 19.16%.
The effect of various salts (FeSO4, FeCl2, NaCl, Na2SO4, MnSO4, MnCl2) was determined in the hydrolysis of PCS by Cellulolytic Enzyme Composition #2. […] Cellulolytic Enzyme Composition #2 was added at 0.25 g per liter. Reactions without the addition of the salt served as controls. The capped tubes were incubated at 50° C. in an INNOVA® 4080 incubator shaker (New Brunswick Scientific Co., Inc., Edison, N.J., USA) at 150 rpm.
as §1
The degree of cellulose conversion to glucose plus cellobiose (% conversion) was calculated using the following equation:
% Conversion=(glucose+cellobiose×1.053)(mg/ml)×100×162/cellulose(mg/ml)×180)=(glucose+cellobiose×1.053)(mg/ml)×100/(cellulose(mg/ml)×1.111)
In this equation the factor 1.111 reflects the weight gain in converting cellulose to glucose, and the factor 1.053 reflects the weight gain in converting cellobiose to glucose. Cellulose in PCS was determined by a limit digest of PCS to release glucose and cellobiose.

[8] = test system: Cellulolytic Enzyme Composition #1; assay: mini-plate-scale PASC hydrolysis by Cellulolytic Enzyme Composition #1; assay type: biochemical, Trichoderma reesei; settings: 10 mM; 2 g PASC and 0.01 g enzyme per liter
Method: as §2
In one series of “mini-scale” hydrolysis reactions performed according to the procedure described in Example 30, the effect of 1 mM to 10 mM FeSO4 was evaluated in the hydrolysis of AVICEL® by Cellulolytic Enzyme Composition #1. In a series of “mini-plate-scale” hydrolysis reactions performed according to the procedure described in Example 32, the effect of 1 mM to 10 mM FeSO4 was evaluated in the hydrolysis of PASC by Cellulolytic Enzyme Composition #1, except 2 g of PASC and 0.05 g Cellulolytic Enzyme Composition #1 per liter of 50 mM sodium acetate pH 5 were used.
The above study was extended to a range of concentration of Fe(II) and cellulose. In a series of “mini-plate-scale” hydrolysis reactions performed according to the procedure described in Example 32, except that 0.1 to 10 mM FeSO4, 0.6 to 4 g of PASC and 0.01 g of Cellulolytic Enzyme Composition #1 per liter of 50 mM sodium acetate pH 5 were used.

[9] = fresh salt, PASC, enzyme fresh or buffer pre-incubated
[10] = pre-incubated 3 days with Cellulolytic Enzyme Composition #1
[11] = 10 mM fresh salt, fresh AVICEL, fresh enzyme
[12] = 10 mM, pre-incubated three days with AVICEL
[13] = 10 mM, pre-incubated three days with Cellulolytic Enzyme Composition #1

Which results are given for `OO` [H2O2, Hydrogen peroxide]?
Effect on the inhibition by ferrous ion [1]: reduced the inhibitory effect; Effect on hydrolysis in the absence of Fe(II) ([1]; 10 mM H2O2 with or without 10 mM desferrioxamine (FIG. 22B)): only affected the hydrolysis slightly

Which results are given for `c1cnc2c(c1)ccc1ncccc12` [1,7-Phenanthroline]?
cellobiose level in the hydrolysis products versus absence of the compounds [2]: about twice; Effect of chelator on enzyme in the absence of FeSO4 [2]: essentially benign

Which “E°” value ([3]; single-electron oxidation potential of iron-chelator complexes) does the source give for `O=C([O-])CC(O)(CC(=O)[O-])C(=O)[O-].[Fe+3]` [Fe(III)-citrate, Fe-citrate] here?
The value was −0.191^2 V.

And the “Effect on hydrolysis of PCS” value ([1]; 1 and 10 mM)?
The value was “did not affect”.

And the “Effect on enzymatic cellulolysis: loss in initial rate” value [4]?
The value was “No significant change”.

What about the “Effect on enzymatic cellulolysis: loss in extended hydrolysis extent” value [4] of the same molecule?
The value was “no change”.

Which “cellobiose level in the hydrolysis products versus absence of the compounds” value [2] does the source give for `c1cnc2c(c1)ccc1cccnc12` [1,10-phenanthroline] here?
The value was “about twice”.

What about the “Effect of chelator on enzyme in the absence of FeSO4” value [2] of the same molecule?
Its value is “significant inhibition”.

For `[Cl][Fe][Cl]` [FeCl2, ferrous chloride], which “loss in extent of hydrolysis” value [5, 9] is on record?
Its value is “no loss”.

What about the “loss in initial rate” value [5, 9] of the same molecule?
Its value is “approximately 30%”.

What about the “loss in extent of hydrolysis” value [5, 10] of the same molecule?
The value was “no loss”.

What about the “loss in initial rate” value [5, 10] of the same molecule?
Its value is roughly 70%.

What about the “loss in extent of hydrolysis” value ([5]; pre-incubated 3 days with PASC) of the same molecule?
Its value is “no loss”.

And the “loss in initial rate” value ([5]; pre-incubated 3 days with PASC)?
Its value is roughly 60%.

And the “loss in extent of hydrolysis” value [6, 11]?
Its value is roughly 50%.

What about the “loss in initial rate” value [6, 11] of the same molecule?
The value was roughly 50%.

What about the “loss in extent of hydrolysis” value [6, 12] of the same molecule?
Its value is roughly 10%.

What about the “loss in initial rate” value [6, 12] of the same molecule?
Its value is roughly 10%.

And the “loss in extent of hydrolysis” value [6, 13]?
The value was roughly 20%.

And the “loss in initial rate” value [6, 13]?
The value was roughly 20%.

What about the “Effect on PCS hydrolysis” value [7] of the same molecule?
The value was “significant inhibition”.

And the “loss of extent of hydrolysis after 4 days” value [8]?
Its value is roughly 30%.

What about the “loss of initial hydrolysis rate” value [8] of the same molecule?
The value was roughly 30%.

Which “Effect on the inhibition by ferrous ion” value [1] does the source give for `CC(=O)N(O)CCCCCNC(=O)CCC(=O)N(O)CCCCCNC(=O)CCC(=O)N(O)CCCCCN` [desferrioxamine] here?
The value was “mitigated almost all”.

What about the “increase in hydrolysis extent” value ([1]; 10 mM, alone) of the same molecule?
The value was “approximately 2%”.

What does the source list for `[Cl][Fe]([Cl])[Cl]` [Fe(III), FeCl3]?
Radius ([3]; ionic radii in crystals, 6-ligand coordination): 0.55 Å; E° ([3]; single-electron redox potential vs NHE): 0.771 V; loss in extent of hydrolysis [5, 9]: approximately 30%; loss in initial rate [5, 9]: ~70%; loss in extent of hydrolysis [5, 10]: no loss; loss in initial rate [5, 10]: ~50%; loss in extent of hydrolysis ([5]; pre-incubated 3 days with PASC): ~10%; loss in initial rate ([5]; pre-incubated 3 days with PASC): ~50%; loss in extent of hydrolysis [6, 11]: ~90%; loss in initial rate [6, 11]: ~90%; loss in extent of hydrolysis [6, 12]: ~80%; loss in initial rate [6, 12]: ~80%; loss in extent of hydrolysis [6, 13]: ~20%; loss in initial rate [6, 13]: ~20%; Effect on enzymatic cellulolysis: loss in initial rate [4]: ~90% loss in initial rate, ~90% loss in extended hydrolysis extent; Effect on enzymatic cellulolysis: loss in extended hydrolysis extent [4]: ~90% loss in initial rate, ~90% loss in extended hydrolysis extent; Effect on enzymatic cellulolysis: loss in extended hydrolysis extent ([4]; listed as FeCl3): ~90%; Effect on enzymatic cellulolysis: loss in initial rate ([4]; listed as FeCl3): ~90%; IC50 ([4]; AVICEL hydrolysis, 0.2 to 2 mM inhibitor, read-out: I50): 500 ± 400 µM; loss of extent of hydrolysis after 4 days [8]: ~80%; loss of initial hydrolysis rate [8]: ~80%
